Measured values from BindingDB's records for doi:10.1021/jm800889m (University of Wisconsin At Madison, 2008).

Legend:
Test in all cases: Radioligand Binding Assay
[1] = target: T1, Gamma-aminobutyric acid receptor subunit alpha-1 [28-456]/beta-2 [26-512]/gamma-2 [40-200],P14867[176-456] (Homo sapiens, UniProt P14867+P18507+P47870); details: 25 °C
T1 construct: 28-456; 26-512; 40-200; 176-456

[2] = target: T2, Gamma-aminobutyric acid receptor subunit alpha-1 [28-456]/beta-2 [26-512]/gamma-2 [40-467,A118C] (Homo sapiens, UniProt P14867+P18507+P47870, A118C); details: 25 °C
T2 construct: 28-456; 26-512; 40-467

[3] = target: T3, Gamma-aminobutyric acid receptor subunit alpha-1 [28-456]/beta-2 [26-512]/gamma-2 [40-467,D95C] (Homo sapiens, UniProt P14867+P18507+P47870, D95C); details: 25 °C
T3 construct: 28-456; 26-512; 40-467

[4] = target: T4, Gamma-aminobutyric acid receptor subunit alpha-1 [28-456]/beta-2 [26-512]/gamma-2 [40-467,L179C] (Homo sapiens, UniProt P14867+P18507+P47870, L179C); details: 25 °C
T4 construct: 28-456; 26-512; 40-467

[5] = target: T5, Gamma-aminobutyric acid receptor subunit alpha-1 [28-456]/beta-2 [26-512]/gamma-2 [40-467,M169C] (Homo sapiens, UniProt P14867+P18507+P47870, M169C); details: 25 °C
T5 construct: 28-456; 26-512; 40-467

[6] = target: T6, Gamma-aminobutyric acid receptor subunit alpha-1 [28-456]/beta-2 [26-512]/gamma-2 [40-467,R171C] (Homo sapiens, UniProt P14867+P18507+P47870, R171C); details: 25 °C
T6 construct: 28-456; 26-512; 40-467

[7] = target: T7, Gamma-aminobutyric acid receptor subunit alpha-1 [28-456]/beta-2 [26-512]/gamma-2 [40-467,R183C] (Homo sapiens, UniProt P14867+P18507+P47870, R183C); details: 25 °C
T7 construct: 28-456; 26-512; 40-467

[8] = target: T8, Gamma-aminobutyric acid receptor subunit alpha-1 [28-456]/beta-2 [26-512]/gamma-2 [40-467,R224C] (Homo sapiens, UniProt P14867+P18507+P47870, R224C); details: 25 °C
T8 construct: 28-456; 26-512; 40-467

[9] = target: T9, Gamma-aminobutyric acid receptor subunit alpha-1 [28-456]/beta-2 [26-512]/gamma-2 [40-467,R233C] (Homo sapiens, UniProt P14867+P18507+P47870, R233C); details: 25 °C
T9 construct: 28-456; 26-512; 40-467

[10] = target: T10, Gamma-aminobutyric acid receptor subunit alpha-1 [28-456]/beta-2 [26-512]/gamma-2 [40-467,T120C] (Homo sapiens, UniProt P14867+P18507+P47870, T120C); details: 25 °C
T10 construct: 28-456; 26-512; 40-467

[11] = target: T11, Gamma-aminobutyric acid receptor subunit alpha-1 [28-456]/beta-2 [26-512]/gamma-2 [40-467,T165C] (Homo sapiens, UniProt P14867+P18507+P47870, T165C); details: 25 °C
T11 construct: 28-456; 26-512; 40-467

[12] = target: T12, Gamma-aminobutyric acid receptor subunit alpha-1 [28-456]/beta-2 [26-512]/gamma-2 [40-467,T181C] (Homo sapiens, UniProt P14867+P18507+P47870, T181C); details: 25 °C
T12 construct: 28-456; 26-512; 40-467

[13] = target: T13, Gamma-aminobutyric acid receptor subunit alpha-1 [28-456]/beta-2 [26-512]/gamma-2 [40-467] (Homo sapiens, UniProt P14867+P18507+P47870); details: pH 7.4; 22 °C
T13 construct: 28-456; 26-512; 40-467

[14] = target: T14, Gamma-aminobutyric acid receptor subunit alpha-1 [A160C]/beta-2 [26-512]/gamma-2 [40-467] (Homo sapiens, UniProt P14867+P18507+P47870, A160C); details: 25 °C
T14 construct: 26-512; 40-467

[15] = target: T15, Gamma-aminobutyric acid receptor subunit alpha-1 [F99C]/beta-2 [26-512]/gamma-2 [40-467] (Homo sapiens, UniProt P14867+P18507+P47870, F99C); details: pH 7.4; 22 °C
T15 construct: 26-512; 40-467

[16] = target: T16, Gamma-aminobutyric acid receptor subunit alpha-1 [G157C]/beta-2 [26-512]/gamma-2 [40-467] (Homo sapiens, UniProt P14867+P18507+P47870, G157C); details: 25 °C
T16 construct: 26-512; 40-467

[17] = target: T17, Gamma-aminobutyric acid receptor subunit alpha-1 [G200C]/beta-2 [26-512]/gamma-2 [40-467] (Homo sapiens, UniProt P14867+P18507+P47870, G200C); details: 25 °C
T17 construct: 26-512; 40-467

[18] = target: T18, Gamma-aminobutyric acid receptor subunit alpha-1 [S204C]/beta-2 [26-512]/gamma-2 [40-467] (Homo sapiens, UniProt P14867+P18507+P47870, S204C); details: 25 °C
T18 construct: 26-512; 40-467

[19] = target: T19, Gamma-aminobutyric acid receptor subunit alpha-1 [S205C]/beta-2 [26-512]/gamma-2 [40-467] (Homo sapiens, UniProt P14867+P18507+P47870, S205C); details: 25 °C
T19 construct: 26-512; 40-467

[20] = target: T20, Gamma-aminobutyric acid receptor subunit alpha-1 [T162C]/beta-2 [26-512]/gamma-2 [40-467] (Homo sapiens, UniProt P14867+P18507+P47870, T162C); details: 25 °C
T20 construct: 26-512; 40-467

[21] = target: T21, Gamma-aminobutyric acid receptor subunit alpha-1 [T206C]/beta-2 [26-512]/gamma-2 [40-467] (Homo sapiens, UniProt P14867+P18507+P47870, T206C); details: 25 °C
T21 construct: 26-512; 40-467

[22] = target: T22, Gamma-aminobutyric acid receptor subunit alpha-1 [V202C]/beta-2 [26-512]/gamma-2 [40-467] (Homo sapiens, UniProt P14867+P18507+P47870, V202C); details: 25 °C
T22 construct: 26-512; 40-467

[23] = target: T23, Gamma-aminobutyric acid receptor subunit alpha-1 [V211C]/beta-2 [26-512]/gamma-2 [40-467] (Homo sapiens, UniProt P14867+P18507+P47870, V211C); details: 25 °C
T23 construct: 26-512; 40-467

[24] = target: T24, Gamma-aminobutyric acid receptor subunit alpha-2 [29-451]/beta-2 [26-512]/gamma-2 [40-467] (Homo sapiens, UniProt P18507+P47869+P47870); details: pH 7.4; 22 °C
T24 construct: 29-451; 26-512; 40-467

[25] = target: T25, Gamma-aminobutyric acid receptor subunit alpha-3 [29-492]/beta-2 [26-512]/gamma-2 [40-467] (Homo sapiens, UniProt P18507+P34903+P47870); details: pH 7.4; 22 °C
T25 construct: 29-492; 26-512; 40-467

[26] = target: T26, Gamma-aminobutyric acid receptor subunit alpha-4 [36-554]/beta-2 [26-512]/gamma-2 [40-467] (Homo sapiens, UniProt P18507+P47870+P48169); details: pH 7.4; 22 °C
T26 construct: 36-554; 26-512; 40-467

[27] = target: T27, Gamma-aminobutyric acid receptor subunit alpha-5 [32-462]/beta-2 [26-512]/gamma-2 [40-467] (Homo sapiens, UniProt P18507+P31644+P47870); details: pH 7.4; 22 °C
T27 construct: 32-462; 26-512; 40-467

[28] = target: T28, Gamma-aminobutyric acid receptor subunit alpha-6 [20-453]/beta-2 [26-512]/gamma-2 [40-467] (Homo sapiens, UniProt P18507+P47870+Q16445); details: pH 7.4; 22 °C
T28 construct: 20-453; 26-512; 40-467

`CN1CCN(C(=O)Oc2c3[nH]ccnc-3c(=O)n2-c2ccc(Cl)cn2)CC1` [ESZ] was tested, and the Ki [1] was 22.4 nM, the Ki [2] was 393 nM and the Ki [3] was 82.4 nM. The Ki [4] was 46.3 nM, the Ki [5] was 102 nM and the Ki [6] was 110 nM. The Ki [7] was 174 nM, the Ki [8] was 70.9 nM and the Ki [9] was 67 nM. It also gave a Ki [10] of 75.2 nM, a Ki [11] of 71.9 nM and a Ki [12] of 503 nM. The Ki [13] was 50.1 nM, the Ki [14] was 60.4 nM and the Ki [15] was 407 nM. The Ki [16] was 2100 nM, the Ki [17] was 119 nM and the Ki [18] was 57.9 nM. It also gave a Ki [19] of 34.9 nM, a Ki [20] of 33.8 nM and a Ki [21] of 0.83 nM. The Ki [22] was 249 nM, the Ki [23] was 62.4 nM and the Ki [24] was 114 nM. The Ki [25] was 162 nM, the Ki [26] was over 15000 nM and the Ki [27] was 102 nM. It also gave a Ki [28] of over 15000 nM.

Molecule `Cc1ccc(-c2nc3ccc(C)cn3c2CC(=O)N(C)C)cc1` [Ambien] has a Ki [26] of over 15000 nM and a Ki [27] of over 15000 nM.
